Source: ChEMBL document CHEMBL1155962, “Dihydropyrazolopyrimidines containing benzimidazoles as K(V)1.5 potassium channel antagonists” (Bioorg Med Chem Lett, 2009)
Values belong to the molecule of their own block, whether it stands above or below them. The source made the active and inactive calls. No cut-off for these calls is given here.

Experiments:
[1] = molecular target: T1, Potassium voltage-gated channel subfamily A member 5 (Homo sapiens, UniProt P22460); experiment: Inhibition of human Kv1.5 channel expressed in mouse L929 cells; type: cell-based
T1 sequence (P22460 whole entry): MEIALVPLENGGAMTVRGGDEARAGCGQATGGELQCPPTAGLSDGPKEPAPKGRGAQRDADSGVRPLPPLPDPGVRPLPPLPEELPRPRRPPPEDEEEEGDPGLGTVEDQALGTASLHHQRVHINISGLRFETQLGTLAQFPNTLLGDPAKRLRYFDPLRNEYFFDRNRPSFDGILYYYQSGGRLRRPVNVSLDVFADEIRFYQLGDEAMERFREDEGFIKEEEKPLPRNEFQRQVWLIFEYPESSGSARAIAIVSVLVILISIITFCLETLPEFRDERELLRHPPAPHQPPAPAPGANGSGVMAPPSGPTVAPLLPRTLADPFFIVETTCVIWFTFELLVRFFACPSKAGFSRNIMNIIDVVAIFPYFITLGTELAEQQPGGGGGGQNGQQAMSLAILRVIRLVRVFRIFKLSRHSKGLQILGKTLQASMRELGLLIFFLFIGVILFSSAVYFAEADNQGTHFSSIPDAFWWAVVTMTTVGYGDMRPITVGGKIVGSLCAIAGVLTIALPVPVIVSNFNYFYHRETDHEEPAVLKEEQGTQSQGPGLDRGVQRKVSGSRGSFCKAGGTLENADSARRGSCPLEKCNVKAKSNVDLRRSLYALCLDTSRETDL

[2] = Selectivity for human Kv1.5 channel over calcium channel
[3] = Oral bioavailability in rat at 20 umol/kg; type: ADME, organism-based; settings: in vivo
hERG (KCNH2) = hERG (KCNH2) (Homo sapiens, UniProt Q12809); experiment: Inhibition of human ERG at 10 uM
Chain of hERG (KCNH2) (Q12809 whole entry): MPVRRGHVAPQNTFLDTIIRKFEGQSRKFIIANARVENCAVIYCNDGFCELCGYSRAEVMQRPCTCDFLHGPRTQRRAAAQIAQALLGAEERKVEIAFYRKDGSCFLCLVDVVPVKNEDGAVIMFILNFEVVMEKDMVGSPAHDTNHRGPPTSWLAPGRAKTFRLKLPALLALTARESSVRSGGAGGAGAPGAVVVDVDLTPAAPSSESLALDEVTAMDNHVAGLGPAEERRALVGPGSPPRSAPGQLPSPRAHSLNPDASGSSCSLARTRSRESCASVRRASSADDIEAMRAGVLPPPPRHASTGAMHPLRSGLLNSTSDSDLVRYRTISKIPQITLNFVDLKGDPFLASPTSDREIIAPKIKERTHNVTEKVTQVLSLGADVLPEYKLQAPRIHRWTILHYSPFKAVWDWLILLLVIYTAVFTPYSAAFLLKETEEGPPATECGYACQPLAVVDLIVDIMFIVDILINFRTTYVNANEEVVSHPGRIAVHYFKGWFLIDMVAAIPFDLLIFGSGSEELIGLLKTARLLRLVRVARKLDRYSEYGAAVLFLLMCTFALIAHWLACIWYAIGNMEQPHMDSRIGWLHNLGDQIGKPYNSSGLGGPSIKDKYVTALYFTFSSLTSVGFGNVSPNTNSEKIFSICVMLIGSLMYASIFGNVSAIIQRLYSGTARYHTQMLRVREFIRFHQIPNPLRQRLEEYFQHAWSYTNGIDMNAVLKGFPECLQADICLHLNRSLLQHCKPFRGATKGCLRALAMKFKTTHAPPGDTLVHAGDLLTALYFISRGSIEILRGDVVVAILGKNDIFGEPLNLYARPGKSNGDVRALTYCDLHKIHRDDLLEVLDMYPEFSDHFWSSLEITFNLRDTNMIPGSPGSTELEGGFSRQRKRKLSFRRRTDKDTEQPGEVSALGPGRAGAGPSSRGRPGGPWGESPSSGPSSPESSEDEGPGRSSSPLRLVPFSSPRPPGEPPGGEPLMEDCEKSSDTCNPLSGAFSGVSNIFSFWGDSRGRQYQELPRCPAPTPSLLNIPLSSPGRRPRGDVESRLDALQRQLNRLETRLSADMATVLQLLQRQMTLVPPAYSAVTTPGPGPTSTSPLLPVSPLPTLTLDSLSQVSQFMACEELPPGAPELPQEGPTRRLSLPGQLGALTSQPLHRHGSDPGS

[4] = Volume of distribution at steady state in rat at 10 umol/kg, intra-arterial for 10 mins; type: ADME, organism-based; settings: in vivo, read-out: Vdss
[5] = Terminal half life in rat at 10 umol/kg, intra-arterial for 10 mins; type: ADME, organism-based; settings: in vivo, read-out: beta t1/2 (converted)
Homo sapiens = organism: Homo sapiens; experiment: Selectivity for human Kv1.5 channel over human ERG
[6] = Inhibition of sodium channel at 10 uM
[7] = Selectivity for human Kv1.5 channel over sodium channel
[8] = Plasma clearance in rat at 10 umol/kg, intra-arterial for 10 mins; type: ADME, organism-based
[9] = molecular target: T1, Potassium voltage-gated channel subfamily A member 5; experiment: Inhibition of human Kv1.5 channel expressed in mouse L929 cells at >1 uM; type: cell-based
Oryctolagus cuniculus [10] = experiment: Prolongation of effective refractory period in rabbit atrium at 3 mg/kg; type: functional, Cardiac atrium
[11] = Inhibition of calcium channel at 10 uM
Oryctolagus cuniculus [12] = experiment: Prolongation of effective refractory period in rabbit ventricle at 0.3 to 10 mg/kg; type: functional, organism-based

IC50 [1]: 200 nM
Structure (SMILES): COC(=O)c1ccc2c(c1)nc(C1=C(C)Nc3ccnn3C1c1ccc(Cl)c(Cl)c1)n2C (stereo not drawn)

Selectivity ratio [2]: > 200
bioavailability [3]: 51%
Vd [4]: 1.6 L/kg
half-life [5]: 0.57 h
Selectivity ratio (Homo sapiens): > 200
inhibition [6]: 37%
Selectivity ratio [7]: > 200
clearance [8]: 35 mL/min/kg
IC50 [1]: 15 nM
Structure (SMILES): CC1=C(c2nc3cc(F)ccc3n2C)C(c2ccc(Cl)c(Cl)c2)n2nccc2N1 (stereo not drawn)
inhibition at 10 µM (hERG (KCNH2)): 83%

inhibition [9]: 29%
IC50 [1]: > 1000 nM
Structure (SMILES): CC1=C(c2nc3cc(S(C)(=O)=O)ccc3n2C)C(c2ccc(Cl)c(Cl)c2)n2nccc2N1 (stereo not drawn)

IC50 [1]: 94 nM
Structure (SMILES): CC1=C(c2nc3cc(Cl)ccc3n2C(C)C)C(c2ccc(Cl)c(Cl)c2)n2nccc2N1 (stereo not drawn)

IC50 [1]: 68 nM
Structure (SMILES): CC1=C(c2nc3cc(Cl)ccc3n2C)C(c2ccc(Cl)c(Cl)c2)n2nccc2N1 (stereo not drawn)

IC50 [1]: 200 nM
Structure (SMILES): CC1=C(c2nc3cc(C)ccc3n2C)C(c2ccc(Cl)c(Cl)c2)n2nccc2N1 (stereo not drawn)

IC50 [1]: 110 nM
Structure (SMILES): CC1=C(c2nc3cccc(C)c3n2C)C(c2ccc(Cl)c(Cl)c2)n2nccc2N1 (stereo not drawn)

IC50 [1]: 980 nM
Structure (SMILES): CC1=C(c2nc3ccc(C)cc3n2C)C(c2ccc(Cl)c(Cl)c2)n2nccc2N1 (stereo not drawn)

inhibition [9]: 25%
IC50 [1]: > 1000 nM
Structure (SMILES): CC1=C(c2ncc(-c3ccccc3)o2)C(c2ccc(Cl)c(Cl)c2)n2nccc2N1 (stereo not drawn)

IC50 [1]: 740 nM
Structure (SMILES): CC1=C(c2nc3ccccc3s2)C(c2ccc(Cl)c(Cl)c2)n2nccc2N1 (stereo not drawn)

IC50 [1]: 48 nM
Structure (SMILES): CCCn1c(C2=C(C)Nc3ccnn3C2c2ccc(Cl)c(Cl)c2)nc2cc(F)ccc21 (stereo not drawn)

Selectivity ratio [2]: > 200
inhibition [11]: 13%
bioavailability [3]: 37%
Vd [4]: 2.1 L/kg
half-life [5]: 1.5 h
Selectivity ratio (Homo sapiens): > 200
inhibition [6]: 27%
Selectivity ratio [7]: > 200
clearance [8]: 42 mL/min/kg
IC50 [1]: 30 nM
Structure (SMILES): COCC1=C(c2nc3cc(F)ccc3n2C)C(c2ccc(Cl)c(Cl)c2)n2nccc2N1 (stereo not drawn)
Activity (Oryctolagus cuniculus [10]): >20%
inhibition at 10 µM (hERG (KCNH2)): 47%
Activity (Oryctolagus cuniculus [12]): inactive

IC50 [1]: 540 nM
Structure (SMILES): CC1=C(c2nc3cc(C(F)(F)F)ccc3n2C)C(c2ccc(Cl)c(Cl)c2)n2nccc2N1 (stereo not drawn)

IC50 [1]: 150 nM
Structure (SMILES): CC1=C(c2nc3cccc(C)c3[nH]2)C(c2ccc(Cl)c(Cl)c2)n2nccc2N1 (stereo not drawn)

IC50 [1]: 660 nM
Structure (SMILES): CC1=C(c2nc3ccc(Cl)cc3n2C)C(c2ccc(Cl)c(Cl)c2)n2nccc2N1 (stereo not drawn)

IC50 [1]: 220 nM
Structure (SMILES): CC1=C(c2nc3cc(C#N)ccc3n2C)C(c2ccc(Cl)c(Cl)c2)n2nccc2N1 (stereo not drawn)

IC50 [1]: 71 nM
Structure (SMILES): CC1=C(c2nc3cccc(Cl)c3n2C)C(c2ccc(Cl)c(Cl)c2)n2nccc2N1 (stereo not drawn)

inhibition [9]: 8%
IC50 [1]: > 1000 nM
Structure (SMILES): CC(=O)Nc1ccc2c(c1)nc(C1=C(C)Nc3ccnn3C1c1ccc(Cl)c(Cl)c1)n2C (stereo not drawn)

IC50 [1]: 150 nM
Structure (SMILES): CC1=C(c2nc3cccc(F)c3n2C)C(c2ccc(Cl)c(Cl)c2)n2nccc2N1 (stereo not drawn)

IC50 [1]: 510 nM
Structure (SMILES): CC1=C(c2nc3ccccc3[nH]2)C(c2ccc(Cl)c(Cl)c2)n2nccc2N1 (stereo not drawn)

IC50 [1]: 75 nM
Structure (SMILES): CC1=C(c2nc3ccccc3n2C)C(c2ccc(Cl)c(Cl)c2)n2nccc2N1 (stereo not drawn)

inhibition [9]: 30%
IC50 [1]: > 1000 nM
Structure (SMILES): CC1=C(c2nc3cc(S(=O)(=O)Nc4ccccc4)ccc3n2C)C(c2ccc(Cl)c(Cl)c2)n2nccc2N1 (stereo not drawn)

inhibition [9]: 29%
IC50 [1]: > 1000 nM
Structure (SMILES): CCCCc1nnc(C2=C(C)Nc3ccnn3C2c2ccc(Cl)c(Cl)c2)o1 (stereo not drawn)

IC50 [1]: 57 nM
Structure (SMILES): CCn1c(C2=C(C)Nc3ccnn3C2c2ccc(Cl)c(Cl)c2)nc2cc(Cl)ccc21 (stereo not drawn)

IC50 [1]: 64 nM
Structure (SMILES): CC1=C(c2nc3c(F)cccc3n2C)C(c2ccc(Cl)c(Cl)c2)n2nccc2N1 (stereo not drawn)

inhibition [9]: 18%
IC50 [1]: > 1000 nM
Structure (SMILES): CC1=C(c2nnc(-c3ccccc3)o2)C(c2ccc(Cl)c(Cl)c2)n2nccc2N1 (stereo not drawn)
